Measured values reported in article PMC2665923 (Journal of medicinal chemistry, 2009).
Entries after “also recorded” stand apart in the source; their conditions may differ.

Experiments:
Storage stability at rt = format: physicochemical; conditions: few weeks at rt
[1] = system: GSK-3β activity (phosphorylation of glycogen synthase); experiment: Western immunoblot of glycogen synthase phosphorylation in cells; format: cell-based; conditions: BXPC3, 5 and 26 at 5 μM, 6-36 h, 27 at 5, 10, 20 μM
[2] = system: NFκB-mediated expression of XIAP; experiment: Western immunoblot of XIAP expression; format: cell-based; conditions: BXPC3; 5 and 26 at 5 μM; 27 up to 20 μM
[3] = system: BXPC3 and HupT3 pancreatic cancer cells; experiment: Apoptosis by Hoechst staining; format: cell-based; conditions: 5 (5 μM), 26 (5 μM), 27 (20 μM), 36 h
[4] = system: pancreatic cancer cells (MiaPaCa-2, BXPC3, HupT3); experiment: Pancreatic cancer cell proliferation; format: cell-based; conditions: for antiproliferative activity in pancreatic cancer cells: MiaPaCa-2, BXPC3, HupT3
[5] = system: pancreatic cancer cells (MiaPaCa-2, BXPC3, HupT3); conditions: BXPC3, HupT3 and MiaPaCa-2; shown earlier; cited from earlier work

Cn1cc(C2=C(c3coc4cc(O)ccc34)C(=O)NC2=O)c2cc(F)ccc21 [Compound 4, 3-(5-Fluoro-1-methyl-1H-indol-3-yl)-4-(6-hydroxy-benzofuran-3-yl)-pyrrole-2,5-dione]
stability on storage (Storage stability at rt): Partially degradated after few weeks at rt

COc1cccc2c(C3=C(c4cn(C)c5cc(I)c(F)cc45)C(=O)NC3=O)coc12 [Compound 5, 3-(5-Fluoro-6-iodo-1-methyl-1H-indol-3-yl)-4-(7-methoxy-benzofuran-3-yl)-pyrrole-2,5-dione]
GSK-3β activity in cells (GS phosphorylation) [1]: effectively inhibited | NFκB-mediated expression of XIAP [2]: pronounced decrease | apoptosis / survival of pancreatic cancer cells [3]: significant apoptosis | antiproliferative activity in pancreatic cancer cells [4]: good antiproliferative activity | concentrations showing significant anticancer activity ([4]; pancreatic cancer cells): 1 to 5 µM

Cn1cc(C2=C(c3coc4ccccc34)C(=O)NC2=O)c2cc(F)c(Cl)cc21 [Compound 6, 3-Benzofuran-3-yl-4-(6-chloro-5-fluoro-1-methyl-1H-indol-3-yl)-pyrrole-2,5-dione]
antiproliferative activity in pancreatic cancer cells [4]: good antiproliferative activity

COc1cccc2c(C3=C(c4cn(C)c5cc(Cl)c(F)cc45)C(=O)NC3=O)coc12 [Compound 11, 3-(6-Chloro-5-fluoro-1-methyl-1H-indol-3-yl)-4-(7-methoxy-benzofuran-3-yl)-pyrrole-2,5-dione]
antiproliferative activity in pancreatic cancer cells [4]: good antiproliferative activity

Cn1cc(C2=C(c3coc4ccccc34)C(=O)NC2=O)c2cc(Br)ccc21 [Compound 13]
antiproliferative activity in pancreatic cancer cells [4]: little or no inhibitory activity

C#CCOc1ccc2c(C3=C(c4cn(C)c5ccc(Br)cc45)C(=O)NC3=O)coc2c1 [Compound 16, 3-(5-Bromo-1-methyl-1H-indol-3-yl)-4-(6-prop-2-ynyloxy-benzofuran-3-yl)-pyrrole-2,5-dione]
stability on storage (Storage stability at rt): Partially degradated after few weeks at rt

COc1cccc2c(C3=C(c4cn(C)c5c(Br)cc(Br)cc45)C(=O)NC3=O)coc12 [Compound 20, 3-(5,7-Dibromo-1-methyl-1H-indol-3-yl)-4-(7-methoxy-benzofuran-3-yl)-pyrrole-2,5-dione]
antiproliferative activity in pancreatic cancer cells [4]: good antiproliferative activity

Cn1cc(C2=C(c3coc4ccccc34)C(=O)NC2=O)c2cc(I)ccc21 [Compound 21, 3-Benzofuran-3-yl-4-(5-iodo-1-methyl-1H-indol-3-yl)-pyrrole-2,5-dione]
antiproliferative activity in pancreatic cancer cells [4]: little or no inhibitory activity

Cn1cc(C2=C(c3coc4ccc(F)cc34)C(=O)NC2=O)c2cc(I)ccc21 [Compound 22, 3-(5-Fluoro-benzofuran-3-yl)-4-(5-iodo-1-methyl-1H-indol-3-yl)-pyrrole-2,5-dione]
antiproliferative activity in pancreatic cancer cells [4]: little or no inhibitory activity

Cn1cc(C2=C(c3coc4ccc(F)cc34)C(=O)NC2=O)c2cc(C#CC3CC3)ccc21 [Compound 25, 3-(5-Cyclopropylethynyl-1-methyl-1H-indol-3-yl)-4-(5-fluoro-benzofuran-3-yl)-pyrrole-2,5-dione]
antiproliferative activity in pancreatic cancer cells [4]: little or no inhibitory activity

Cn1cc(C2=C(c3coc4ccc(F)cc34)C(=O)NC2=O)c2cc3c(cc21)OCO3 [Compound 26, 3-(5-Fluoro-benzofuran-3-yl)-4-(5-methyl-5H-[1,3]dioxolo[4,5-f]indol-7-yl)-pyrrole-2,5-dione]
GSK-3β activity in cells (GS phosphorylation) [1]: effectively inhibited | NFκB-mediated expression of XIAP [2]: pronounced decrease | apoptosis / survival of pancreatic cancer cells [3]: significant apoptosis | antiproliferative activity in pancreatic cancer cells [4]: good antiproliferative activity

COc1cc2c(C3=C(c4coc5ccccc45)C(=O)NC3=O)cn(C)c2cc1Cl [Compound 27, 3-Benzofuran-3-yl-4-(6-chloro-5-methoxy-1-methyl-1H-indol-3-yl)-pyrrole-2,5-dione]
GSK-3β activity in cells (GS phosphorylation) [1]: did not affect | NFκB-mediated expression of XIAP [2]: no such effect | apoptosis / survival of pancreatic cancer cells [3]: did not affect | antiproliferative activity in pancreatic cancer cells [4]: did not affect; also recorded: little or no inhibitory activity

COCc1cccc2c(C3=C(c4coc5ccccc45)C(=O)NC3=O)cn(C)c12 [Compound 33, 3-Benzofuran-3-yl-4-(7-methoxymethyl-1-methyl-1H-indol-3-yl)-pyrrole-2,5-dione]
antiproliferative activity in pancreatic cancer cells [4]: little or no inhibitory activity

COc1ccc(CNC(=O)Nc2ncc([N+](=O)[O-])s2)cc1 [Compound 77]
pancreatic cancer cell proliferation [5]: significant decrease

Cn1cc(C2=C(c3ccc(Cl)cc3Cl)C(=O)NC2=O)c2ccccc21 [Compound 78]
pancreatic cancer cell proliferation [5]: significant decrease
